Source: patent publication US9447100B2, “Substituted pyrazolo[1,5-A] pyrimidines as calcium receptor modulating agents” (Takeda Pharmaceutical Company Limited, priority 2002, dated 2016)
Where a name gives a salt, the structure may show the parent alone.

Structure (SMILES)	melting point [°C]
CCC(CC)(NC(=O)c1c(C)nn2c1NC(c1ccccc1)CC2(C)C)c1ccccc1F (stereo not shown) (as salt: HCl) [Example 843, N-(1-ethyl-1-(2-fluorophenyl)propyl)-2,7,7-trimethyl-5-phenyl-4,5,6,7-tetrahydropyrazolo[1,5-a]pyrimidine-3-carboxamide]	180 to 182
CC(C)(NC(=O)c1cnn2c1NC(c1ccccc1)CC2C(F)(F)F)c1cccc2ccccc12 (stereo not shown) [Example 368, N-(1-methyl-1-(1-naphthyl)ethyl)-5-phenyl-7-(trifluoromethyl)-4,5,6,7-tetrahydropyrazolo[1,5-a]pyrimidine-3-carboxamide]	221 to 222
CC1(C)CC(c2ccccc2)Nc2c(C(=O)NC3(C#N)CCCCC3)cnn21 (stereo not shown) [Example 627, N-(1-cyanocyclohexyl)-7,7-dimethyl-5-phenyl-4,5,6,7-tetrahydropyrazolo[1,5-a]pyrimidine-3-carboxamide]	> 300
CCC(CC)(NC(=O)c1c(C)nn2c1N[C@@H](c1ccccc1)CC2(C)C)c1ccc(O)cc1 [Example 1064, (5R)-N-(1-ethyl-1-(4-hydroxyphenyl)propyl)-2,7,7-trimethyl-5-phenyl-4,5,6,7-tetrahydropyrazolo[1,5-a]pyrimidine-3-carboxamide]	160 to 161
CCOc1ccc(C(CC)(CC)NC(=O)c2cnn3c2NC(c2ccccc2)CC3(C)C)cc1 (stereo not shown) [Example 722, N-(1-(4-ethoxyphenyl)-1-ethylpropyl)-7,7-dimethyl-5-phenyl-4,5,6,7-tetrahydropyrazolo[1,5-a]pyrimidine-3-carboxamide]	141 to 142
CCC(CC)(NC(=O)c1c(C)nn2c1NC(c1ccccc1F)CC2(C)C)c1ccccc1 (stereo not shown) (as salt: HCl) [Example 840, N-(1-ethyl-1-phenylpropyl)-5-(2-fluorophenyl)-2,7,7-trimethyl-4,5,6,7-tetrahydropyrazolo[1,5-a]pyrimidine-3-carboxamide]	160 to 162
CCOC(=O)c1cnn2c1NC(c1ccc3ccccc3c1)CC2C(F)(F)F (stereo not shown) [Example 2, ethyl 5-(2-naphthyl)-7-(trifluoromethyl)-4,5,6,7-tetrahydropyrazolo[1,5-a]pyrimidine-3-carboxylate]	120 to 122
CCC(CC)(NC(=O)c1c(C)nn2c1NC(c1ccccc1)CC2(C)C)c1ccc(F)cc1 (stereo not shown) [Example 761, N-(1-ethyl-1-(4-fluorophenyl)propyl)-2,7,7-trimethyl-5-phenyl-4,5,6,7-tetrahydropyrazolo[1,5-a]pyrimidine-3-carboxamide]	182 to 183
O=C(NC12CC3CC(CC(C3)C1)C2)c1cnn2c1NC(c1ccco1)CC2C(F)(F)F (stereo not shown) [Example 270, N-(1-adamantyl)-5-(2-furyl)-7-(trifluoromethyl)-4,5,6,7-tetrahydropyrazolo[1,5-a]pyrimidine-3-carboxamide]	230 to 231
CCC(CC)(NC(=O)c1c(C)nn2c1NC(c1ccccc1OC)CC2(C)C)c1ccc(C)cc1 (stereo not shown) (as salt: HCl) [Example 965, N-(1-ethyl-1-(4-methylphenyl)propyl)-5-(2-methoxyphenyl)-2,7,7-trimethyl-4,5,6,7-tetrahydropyrazolo[1,5-a]pyrimidine-3-carboxamide]	162 to 163
CCC(CC)(NC(=O)c1cnn2c1N[C@@H](c1ccccc1)CC2(C)C)c1ccc(C(C)(C)C)cc1 (as salt: HCl) [Example 1052, (5R)-N-(1-(4-tert-butylphenyl)-1-ethylpropyl)-7,7-dimethyl-5-phenyl-4,5,6,7-tetrahydropyrazolo[1,5-a]pyrimidine-3-carboxamide]	139 to 140
CCC1(CC)C[C@H](O)CN1C(=O)c1cnn2c1N[C@@H](c1ccccc1)CC2(C)C (as salt: HCl) [Example 1118, (3S)-1-(((5R)-7,7-dimethyl-5-phenyl-4,5,6,7-tetrahydropyrazolo[1,5-a]pyrimidin-3-yl)carbonyl)-5,5-diethyl-3-pyrrolidinol]	247 to 249
CCCC(CC)(CC)NC(=O)c1c(C)nn2c1N[C@@H](c1ccccc1)CC2(C)C (as salt: HCl) [Example 1055, (5R)-N-(1,1-diethylbutyl)-2,7,7-trimethyl-5-phenyl-4,5,6,7-tetrahydropyrazolo[1,5-a]pyrimidine-3-carboxamide]	176 to 177
CCC(CC)(NC(=O)c1cnn2c1NC(c1ccccc1)CC21CCCCC1)c1ccc(C(F)(F)F)cc1 (stereo not shown) [Example 200, N-(1-ethyl-1-(4-(trifluoromethyl)phenyl)propyl)-5′-phenyl-5′,6′-dihydro-4′H-spiro[cyclohexane-1,7′-pyrazolo[1,5-a]pyrimidine]-3′-carboxamide]	274 to 275
CCC(CC)(NC(=O)c1c(C)nn2c1N[C@H](c1ccccc1F)CC2(C)C)c1ccc(C)cc1 (as salt: HCl) [Example 1083, (5S)-N-(1-ethyl-1-(4-methylphenyl)propyl)-5-(2-fluorophenyl)-2,7,7-trimethyl-4,5,6,7-tetrahydropyrazolo[1,5-a]pyrimidine-3-carboxamide]	203 to 204
CCC(CC)(NC(=O)c1cnn2c1N[C@@H](c1ccccc1)CC2(C)C)c1ccc(CO)cc1 (as salt: HCl) [Example 1077, (5R)-N-(1-ethyl-1-(4-(hydroxymethyl)phenyl)propyl)-7,7-dimethyl-5-phenyl-4,5,6,7-tetrahydropyrazolo[1,5-a]pyrimidine-3-carboxamide]	159 to 160

Structure (SMILES)	melting point [°C]
COC(=O)C1(NC(=O)c2cnn3c2NC(c2ccccc2)CC3(C)C)CCCCC1 (stereo not shown) [Example 624, methyl 1-(((7,7-dimethyl-5-phenyl-4,5,6,7-tetrahydropyrazolo[1,5-a]pyrimidin-3-yl)carbonyl)amino)cyclo-hexanecarboxylate]	184 to 185
Cc1nn2c(c1C(=O)O)NC(c1cccs1)CC2(C)C (stereo not shown) [Example 951, 2,7,7-trimethyl-5-(2-thienyl)-4,5,6,7-tetrahydropyrazolo[1,5-a]pyrimidine-3-carboxylic acid]	186 to 187
CCOC(=O)COc1ccc(C(CC)(CC)NC(=O)c2cnn3c2NC(c2ccccc2)CC3(C)C)cc1 (stereo not shown) [Example 730, ethyl (4-(1-(((7,7-dimethyl-5-phenyl-4,5,6,7-tetrahydropyrazolo[1,5-a]pyrimidin-3-yl)carbonyl)amino)-1-ethylpropyl)phenoxy)acetate]	178 to 179
CCC(NC(=O)c1cnn2c1NC(c1ccccc1)CC2C(F)(F)F)c1ccccc1F (stereo not shown) [Example 400, N-(1-(2-fluorophenyl)propyl)-5-phenyl-7-(trifluoromethyl)-4,5,6,7-tetrahydropyrazolo[1,5-a]pyrimidine-3-carboxamide]	204 to 205
CCC(CC)(NC(=O)c1cnn2c1NC(c1ccccc1)CC2(C)C)C1CCCCC1 (stereo not shown) [Example 432, N-(1-cyclohexyl-1-ethylpropyl)-7,7-dimethyl-5-phenyl-4,5,6,7-tetrahydropyrazolo[1,5-a]pyrimidine-3-carboxamide]	130 to 131
CCC(CC)(NC(=O)c1c(C)nn2c1NC(c1cccc(C)c1)CC2(C)C)c1ccc(C)cc1 (stereo not shown) (as salt: HCl) [Example 974, N-(1-ethyl-1-(4-methylphenyl)propyl)-2,7,7-trimethyl-5-(3-methylphenyl)-4,5,6,7-tetrahydropyrazolo[1,5-a]pyrimidine-3-carboxamide]	120 to 123
CCC(CC)(NC(=O)c1c(C)nn2c1NC(c1ccccc1)CC2(C)C)c1ccc(C(C)O)cc1 (stereo not shown) [Example 978, N-(1-ethyl-1-(4-(1-hydroxyethyl)phenyl)propyl)-2,7,7-trimethyl-5-phenyl-4,5,6,7-tetrahydropyrazolo[1,5-a]pyrimidine-3-carboxamide]	165 to 166
CC1(NC(=O)c2cnn3c2NC(c2ccccc2)CC3(C)C)CCCCC1 (stereo not shown) [Example 586, 7,7-dimethyl-N-(1-methylcyclohexyl)-5-phenyl-4,5,6,7-tetrahydropyrazolo[1,5-a]pyrimidine-3-carboxamide]	170 to 171
COc1ccccc1C1CC(C)(C)n2ncc(C(=O)NC34CC5CC(CC(C5)C3)C4)c2N1 (stereo not shown) [Example 581, N-1-adamantyl-5-(2-methoxyphenyl)-7,7-dimethyl-4,5,6,7-tetrahydropyrazolo[1,5-a]pyrimidine-3-carboxamide]	280 to 282
CC1CC(c2ccccc2)Nc2c(C(=O)O)cnn21 (stereo not shown) [Example 27, 7-methyl-5-phenyl-4,5,6,7-tetrahydropyrazolo[1,5-a]pyrimidine-3-carboxylic acid]	165 to 167
CCC(CC)(NC(=O)c1c(C)nn2c1NC(c1ccccc1)CC2(C)C)c1ccc(N(C)C)cc1 (stereo not shown) (as salt: HCl) [Example 821, N-(1-(4-(dimethylamino)phenyl)-1-ethylpropyl)-2,7,7-trimethyl-5-phenyl-4,5,6,7-tetrahydropyrazolo[1,5-a]pyrimidine-3-carboxamide]	140 to 141
O=C(NC1(C(=O)Nc2ccccc2)CCCCC1)c1cnn2c1N[C@H](c1ccccc1)C[C@@H]2C(F)(F)F (stereo in doubt) [Example 371, N-(1-(anilinocarbonyl)cyclohexyl)-5-phenyl-7-(trifluoromethyl)-4,5,6,7-tetrahydropyrazolo[1,5-a]pyrimidine-3-carboxamide]	262 to 263
CCC(CC)(NC(=O)c1cnn2c1NC(c1ccccc1)C1CCCCC12)c1ccc(C(F)(F)F)cc1 (stereo not shown) [Example 201, N-(1-ethyl-1-(4-(trifluoromethyl)phenyl)propyl)-5-phenyl-4,5,5a,6,7,8,9,9a-octahydropyrazolo[1,5-a]quinazoline-3-carboxamide]	213 to 214
C=Cc1ccc(C(CC)(CC)NC(=O)c2cnn3c2NC(c2ccccc2)CC3(C)C)cc1 (stereo not shown) [Example 645, N-(1-ethyl-1-(4-vinylphenyl)propyl)-7,7-dimethyl-5-phenyl-4,5,6,7-tetrahydropyrazolo[1,5-a]pyrimidine-3-carboxamide]	155 to 156
CCC(CC)(NC(=O)c1c(C)nn2c1NC(c1ccccc1)CC2(C)C)c1ccc(C(=O)O)cc1 (stereo not shown) [Example 979, 4-(1-ethyl-1-(((2,7,7-trimethyl-5-phenyl-4,5,6,7-tetrahydropyrazolo[1,5-a]pyrimidin-3-yl)carbonyl)amino)propyl) benzoic acid]	244 to 246
